The subject of assay [1] is acetylcholine-induced bronchoconstriction in guinea pigs. Briefly: Effects on acetylcholine-induced bronchoconstriction in guinea pigs. The assay is classed as in vivo, guinea pig. As to conditions: Cavia porcellus; 24 hours after 25 μg/kg of the compounds were administered; read-out: percentage of bronchoconstriction suppression with respect to the acetylcholine stimulation. The method, then: These in vivo assays are used to evaluate the bronchoprotective effects based on the M3 muscarinic receptor antagonist activity and the β2 adrenergic receptor agonist activity of test compounds. Hartley male guinea pigs (Nippon SLC, Inc.) weighing about 400-500 g were used. The animals were anesthetized by inhalation of Fluothane (Takeda Pharmaceutical Company Limited) in a plastic box. The test compounds were dissolved in physiological saline containing DMSO, and administered through the nasal cavity into the trachea at a dose of 0.04-25 μg/kg and at a volume of 0.4 mL/kg. For control animals, solvent without a test compound was administered. In general, animals awake several minutes after completion of the administration. The animals were anesthetized with an intraperitoneal administration of 33% urethane/0.8% α-chloralose at a dose of 3 mL/kg. In order to intravenously administer acetylcholine or histamine, a catheter was inserted into the carotid artery. In order to measure artificial respiration and airway ventilation pressure, a cannula was inserted into the trachea. Artificial respiration was applied to the animals at a volume of 10 mL/kg and at a frequency of 60/minute, using a ventilator (Harvard Apparatus). The airway ventilation pressure was measured by the Konzett-Roessler method using a general respiratory function analysis system (M.I.P.S). Prior to administration of acetylcholine or histamine, the airway ventilation pressure was measured and baseline values were recorded. Then, physiological saline was administered through the carotid artery catheter at a volume of 0.4 mL/kg, and the airway ventilation pressure was measured. Bronchoconstrictor response was induced by administering acetylcholine (40 μg/kg, 0.4 mL/kg) or histamine (15 μg/kg, 0.4 mL/kg) through the carotid artery catheter one hour after the administration of the test compounds, and the airway ventilation pressure at the maximum contractile response was recorded. In addition, in order to evaluate duration of action of the test compounds, the above-mentioned dose of acetylcholine or histamine was administered, 1 hour, 6 hours, 12 hours, 18 hours, and 24 hours after the administration of test compounds, and the airway ventilation pressure was measured in the same way. The percentage of suppression by the test compounds with respect to the airway contractile response was calculated according to the following formula. (%) Percentage of the airway constriction suppression=(Airway ventilation pressure of test compound-dosed and acetylcholine- or histamine-dosed animals−Baseline value)/(Airway ventilation pressure of acetylcholine- or histamine-dosed animals−Baseline value)×100
The 50% inhibitory doses (ID50 values) of the test compounds were analyzed by a sigmoidal logistic model using XLfit4 (IDBS, Ltd.) for the percentage of the bronchoconstriction suppression at different doses of the test compounds.

Assay [2] concerns the target T1, human β2 adrenergic receptor (Homo sapiens, UniProt P07550).
T1 construct: expressed in transfected cells; host or cells: CHO-K1
Briefly: Whole-cell cAMP Flashplate assay using CHO-K1 cells stably expressing human β2 adrenergic receptor. The assay is classed as cell-based. The conditions noted are these: cAMP production.

Assay [3] deals with T2, human M3 muscarinic receptor (Homo sapiens, UniProt P20309).
T2 construct: expressed in transfected cells; host or cells: CHO-K1
T2 sequence (P20309 whole entry): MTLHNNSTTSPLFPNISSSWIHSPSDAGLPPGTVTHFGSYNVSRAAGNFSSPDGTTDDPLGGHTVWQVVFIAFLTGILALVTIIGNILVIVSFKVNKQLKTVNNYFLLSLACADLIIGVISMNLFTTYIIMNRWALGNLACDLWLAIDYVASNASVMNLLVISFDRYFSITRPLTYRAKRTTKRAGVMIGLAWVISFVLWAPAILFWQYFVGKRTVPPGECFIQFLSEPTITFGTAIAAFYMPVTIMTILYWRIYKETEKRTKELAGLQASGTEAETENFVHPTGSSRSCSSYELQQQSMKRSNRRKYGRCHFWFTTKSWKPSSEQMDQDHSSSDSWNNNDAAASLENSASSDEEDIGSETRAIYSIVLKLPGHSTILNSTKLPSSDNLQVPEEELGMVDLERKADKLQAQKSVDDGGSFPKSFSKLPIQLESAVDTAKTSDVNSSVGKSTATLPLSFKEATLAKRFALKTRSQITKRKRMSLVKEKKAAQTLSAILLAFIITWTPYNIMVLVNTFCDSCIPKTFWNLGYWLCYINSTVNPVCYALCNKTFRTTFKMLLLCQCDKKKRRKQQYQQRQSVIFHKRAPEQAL
The assay can be described thus: Competition binding assays to human M3 muscarinic receptor ([3H]-NMS displacement, membrane fractions). As to conditions: competition with 1 nM [3H]-NMS. Here is the method: Membrane fractions of human M3 muscarinic receptor were purchased from PerkinElmer, Inc. and stored at −80° C. until use. Phosphate buffered saline (PBS(−), Invitrogen, Co.) was used as assay buffer. The membrane fractions of human M3 muscarinic receptor (10-15 μg of membrane protein) and 1 nM L-[N-methyl-3H]scopolamine methyl chloride ([3H]—NMS) (NET636, 2.59 TBq/mmol, PerkinElmer, Inc.) were added to a final volume of 100 μL and incubated for 2 hours at room temperature (total binding). […] The amount of nonspecific binding was determined in the presence of 5 μM atoropine. […] The filter plates were washed three times with a washing solution (50 mM Tris hydrochloric acid pH 7.4, 0.9% sodium chloride) to remove unbound radioactivity. The plates were then dried and 40 μL Microscint-20 liquid TopCount microplate scintillation cocktail (PerkinElmer Inc.) was added and plates were counted in a Packard TopCount liquid scintillation counter (PerkinElmer, Inc.). The percentage of the binding inhibition by the test compound was calculated according to the following formula. (%)Percentage of binding inhibition=[(Radioactivity of test compound-added sample−Amount of nonspecific binding)/(Amount of total binding−Amount of nonspecific binding)]×100 […]

Counter-ions that a name gives are not always drawn.

This is an account of results in patent US9072734B2, “Quaternary ammonium salt compounds” (Teijin Pharma Limited, priority 2009, dated 2015).

T1 sequence (P07550 whole entry): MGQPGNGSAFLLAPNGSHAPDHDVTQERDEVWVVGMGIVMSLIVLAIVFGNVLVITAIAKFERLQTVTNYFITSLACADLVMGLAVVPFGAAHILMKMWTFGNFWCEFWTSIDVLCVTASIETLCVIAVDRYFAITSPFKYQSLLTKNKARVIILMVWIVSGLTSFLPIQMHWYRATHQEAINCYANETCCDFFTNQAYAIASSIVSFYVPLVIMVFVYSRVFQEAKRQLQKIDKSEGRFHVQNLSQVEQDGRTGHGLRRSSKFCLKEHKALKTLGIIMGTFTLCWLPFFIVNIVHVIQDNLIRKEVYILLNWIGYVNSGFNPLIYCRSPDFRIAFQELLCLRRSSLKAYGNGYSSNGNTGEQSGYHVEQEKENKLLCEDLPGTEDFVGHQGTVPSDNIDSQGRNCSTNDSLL

Turning to `C[N+]1(C)CCC(OC(=O)Nc2cc(CCC(=O)Nc3ccc(CNC[C@H](O)c4ccc(O)c5[nH]c(=O)ccc45)cc3)ccc2-c2ccccc2)CC1` [Example 1, 4-({[5-(2-{[4-({[(2R)-2-hydroxy-2-(8-hydroxy-2-oxo-1,2-dihydroquinolin-5-yl)ethyl]amino}methyl)phenyl]carbamoyl}ethyl)-2-phenylphenyl]carbamoyl}oxy)-1,1-dimethylpiperidin-1-ium trifluoroacetate], in assay [1], the inhibition in vivo at 0.025 mg/kg is no less than 50%. The compound further yielded an EC50 in assay [2] of 1.3 nM. The concentration for half-maximal inhibition (IC50) in assay [3] is less than 10 nM.
The corresponding values for `COc1cc(NC(=O)CCCCc2ccc(-c3ccccc3)c(NC(=O)OC3CC[N+](C)(C)CC3)c2)c(Cl)cc1CNC[C@H](O)c1ccc(O)c2[nH]c(=O)ccc12` [Example 51, 4-({[5-(4-{[2-chloro-4-({[(2R)-2-hydroxy-2-(8-hydroxy-2-oxo-1,2-dihydroquinolin-5-yl)ethyl]amino}methyl)-5-methoxyphenyl]carbamoyl}butyl)-2-phenylphenyl]carbamoyl}oxy)-1,1-dimethylpiperidin-1-ium trifluoroacetate] are no less than 50%, 0.3 nM and less than 10 nM.
